Measured values: patent publication US20230310473A1, “METHOD FOR TREATING OBESITY AND/OR HYPERTENSION” (THE ROYAL INSTITUTION FOR THE ADVANCEMENT OF …, priority 2022, published 2023)

Tests used:
[1] = tested on: inflammation, oxidative stress and ER stress markers in distal colon; assay: mRNA markers in distal colon of HFD obese mice; format: in vivo
Description: FIG. 6L is a heat map showing all the markers in distal colon from control mice and mice fed with HFD in the presence and absence of low levan β-[2,6]-glycosidic linkages treatment.
(§1) Eight-week-old C57/b6 male mice (stock number 000664, Jackson Labs) were fed with a high fat diet (HFD) for 12 weeks in the presence and absence of levan having β-[2,6]-glycosidic linkages. More specifically, the mice were fed either standard diet (SD; 5.8% fat, 44.3% carbohydrate, 19.1% protein) or high fat (HFD; 60% fat, 20% carbohydrate, 20% protein) diet for 12 weeks. Levan having β-[2,6]-glycosidic linkages was administered by gavage (250 mg/Kg) for the last 4 weeks of HFD feeding for a subgroup of mice, the experimental group. Bodyweight, blood glucose, body composition, and lipid profile were determined. Vascular function and endothelial function markers were studied in aorta and mesenteric resistance arteries (MRA). Furthermore, body weight was measured weekly, lean and fat mass were measured by EchoMRl, blood glucose and lipid plasma levels were measured, and the thoracic aorta and mesenteric resistance arteries (MRA) were harvested and used for western blot, quantitative real time (qRT-) PCR and vascular reactivity using the wire myograph.

[2] = tested on: inflammation, oxidative stress and ER stress markers in distal colon; assay: mRNA markers in distal colon of angiotensin II hypertensive mice; format: in vivo
Description: FIG. 10K is a heat map showing the markers in distal colon from normotensive mice and hypertensive mice treated with and without low levan β-[2,6]-glycosidic linkages treatment.

[3] = Liver function (ALT, ALP) in angiotensin II hypertensive mice; format: in vivo
Description: FIG. 11A is a graph showing the level of Alanine Aminotransferase/SGPT (ALT) in control mice administered vehicle, EXP mice administered angiotensin II and levan, and mice administered angiotensin II without levan.
FIG. 11B is a graph showing the level of alkaline phosphatase (ALP) in control mice administered vehicle, EXP mice administered angiotensin II and levan, and mice administered angiotensin II without levan.

[4] = tested on: inflammation, oxidative stress and endoplasmic reticulum stress markers in mesenteric arteries; assay: Western blot markers in mesenteric arteries of HFD obese mice; format: in vivo
Description: FIG. 4D is a western blot of P-eNOS, T-eNOS, BIP, CHOP, TNFα, P65 and GAPDH, in mesenteric arteries for the control mice, the HFD mice and the EXP mice.
as §1

aorta = assay: Vascular contraction and relaxation of aorta from angiotensin II hypertensive mice; format: in vivo
Description: FIG. 8C is a graph showing the aorta contraction percentage in response to the log of phenylephrine (PE) concentration for control mice administered vehicle (1), EXP mice administered angiotensin II and levan (2) and mice administered angiotensin II without levan (3).
FIG. 8D is a graph showing the aorta contraction percentage in response to the log of thromboxane A analog (TXA) concentration for control mice administered vehicle (1), EXP mice administered angiotensin II and levan (2) and mice administered angiotensin II without levan (3).
FIG. 8E is a graph showing the aorta contraction percentage in response to the log of angiotensin II (Ang II) concentration for control mice administered vehicle (1), EXP mice administered angiotensin II and levan (2) and mice administered angiotensin II without levan (3).
FIG. 8F is a graph showing the aorta relaxation percentage in function of the logarithm of the concentration of acetylcholine (endothelium dependent relaxation to Ach) for control mice administered vehicle (1), EXP mice administered angiotensin II and levan (2) and mice administered angiotensin II without levan (3).
FIG. 8G is a graph of the aorta relaxation percentage in function of the logarithm of the concentration of sodium nitroprusside (SNP) (endothelium independent relaxation to SNP) for control mice administered vehicle (1), EXP mice administered angiotensin II and levan (2) and mice administered angiotensin II without levan (3).

[5] = tested on: mesenteric resistance arteries (MRA); assay: Vascular reactivity (wire myograph) of mesenteric resistance arteries from HFD obese mice; format: in vivo
Description: FIG. 4B is a graph of the mesenteric relaxation percentage in function of the logarithm of the concentration of acetylcholine (endothelium dependent relaxation to Ach) for control mice (1), EXP mice (2) and HFD mice (3).
FIG. 4C is a graph of the mesenteric relaxation percentage in function of the logarithm of the concentration of sodium nitroprusside (SNP) (endothelium independent relaxation to SNP) for control mice (1), EXP mice (2) and HFD mice (3).
as §1

[6] = tested on: inflammation, oxidative stress and endoplasmic reticulum stress markers in thoracic aorta; assay: Western blot and qRT-PCR markers in thoracic aorta of HFD obese mice; format: in vivo
Description: FIG. 3D is a western blot of phospho-endothelial nitric oxide synthase (P-eNOS), […] endothelial nitric oxide synthase (T-eNOS), binding protein (BIP), C/EBP homologous protein (CHOP), tumor necrosis factor alpha (TNFα), P65 and glyceraldehyde-3-phosphate dehydrogenase (GAPDH), for the control mice, the HFD mice and the EXP mice.
FIG. 3W is a heat map showing all the markers in thoracic aorta from control mice and mice fed with HFD in the presence and absence of low levan β-[2,6]-glycosidic linkages treatment.
as §1

thoracic aorta = assay: Vascular reactivity (wire myograph) of thoracic aorta from HFD obese mice; format: in vivo
Description: FIG. 3A a graph showing the original traces for the harvesting of the thoracic aorta from mice C, HFD and EXP, and exposing the aortas to acetylcholine (Ach) in vitro using the wire myograph (cumulative doses of Ach after precontraction to phenylephrine).
FIG. 3B is a graph of the aorta relaxation percentage in function of the logarithm of the concentration of acetylcholine (endothelium dependent relaxation to Ach) for control mice (1), EXP mice (2) and HFD mice (3).
FIG. 3C is a graph of the aorta relaxation percentage in function of the logarithm of the concentration of sodium nitroprusside (SNP) (endothelium independent relaxation to SNP) for control mice (1), EXP mice (2) and HFD mice (3).
as §1

[7] = tested on: inflammation, oxidative stress and endoplasmic reticulum stress markers in thoracic aorta; assay: Western blot and mRNA markers in thoracic aorta of angiotensin II hypertensive mice; format: in vivo
Description: FIG. 8H is a western blot of IP3R1,p-Protein kinase-like endoplasmic reticulum kinase (PERK), t-PERK, P-eNOS, T-eNOS, BIP, NOX1, TNFα, P65, cytochrome c and GAPDH, in thoracic aorta for control mice administered vehicle (CTL), EXP mice administered angiotensin II and levan (A+L), and mice administered angiotensin II without levan (ANG).

[8] = tested on: inflammation, oxidative stress and ER stress markers in proximal colon; assay: mRNA markers in proximal colon of angiotensin II hypertensive mice; format: in vivo
Description: FIG. 9K is a heat map showing the markers in proximal colon from normotensive mice and hypertensive mice treated with and without low levan β-[2,6]-glycosidic linkages treatment.

[9] = tested on: inflammation, oxidative stress and ER stress markers in proximal colon; assay: mRNA markers in proximal colon of HFD obese mice; format: in vivo
Description: FIG. 5L is a heat map showing all the markers in proximal colon from control mice and mice fed with HFD in the presence and absence of low levan β-[2,6]-glycosidic linkages treatment.
as §1

[10] = Liver function (ALT, ALP) in HFD obese mice; format: in vivo; settings: mice with obesity; levan 250 mg/Kg gavage 4 weeks
[11] = High fat diet (HFD) obesity mouse model: body weight, body composition, blood glucose, lipid profile; format: in vivo, mice; settings: for body weight: HFD-fed C57/b6 male mice, levan 250 mg/Kg by gavage, last 4 weeks of 12 weeks HFD
Description: as §1
Results, reported as means ± standard error (SE), were analyzed using GraphPad Prism 9 (GraphPad Software, San Diego, CA). T-tests and one-way ANOVA were used to compare certain paired parameters. Unless specified otherwise, the values for p are *p<0.05; **p<0.01; ***p<0.001; and ****p<0.0001.

[12] = Systolic blood pressure in angiotensin II hypertensive mice; format: in vivo; settings: mice with hypertension (angiotensin II); vs angiotensin II without levan
Description: FIG. 8A is a graph showing the systolic blood pressure (BP) in function of time for control mice administered vehicle (1), EXP mice administered angiotensin II and levan (2) and mice administered angiotensin II without levan (3).

[13] = listed as low MW levan β-[2,6]-glycosidic linkages
[14] = listed as low molecular levan having β-[2,6]-glycosidic linkages
[15] = mice with obesity, levan 250 mg/Kg gavage 4 weeks
[16] = obese mice, endothelium dependent relaxation after precontraction to phenylephrine
[17] = HFD mice, levan 250 mg/Kg gavage 4 weeks, vs untreated HFD mice

Q: Which ER stress [1, 13] does the source give for levan [low MW levan] here?
A: Its ER stress is “decreased”.

Q: What about the inflammation [1, 13] of the same substance?
A: Its inflammation is “decreased”.

Q: What about the oxidative stress [1, 13] of the same substance?
A: Its oxidative stress is “decreased”.

Q: And the ER stress [1, 14]?
A: The ER stress was “reduced”.

Q: What about the inflammation [1, 14] of the same substance?
A: The inflammation was “reduced”.

Q: What about the oxidative stress [1, 14] of the same substance?
A: The oxidative stress was “reduced”.

Q: What about the ER stress [2] of the same substance?
A: The ER stress was “reduced”.

Q: And the inflammation [2]?
A: Its inflammation is “reduced”.

Q: What about the oxidative stress [2] of the same substance?
A: The oxidative stress was “reduced”.

Q: What about the “damage to the liver function (ALT, ALP)” value [3] of the same substance?
A: Its value is “did not cause damage”.

Q: And the “toxicity of dose and treatment period” value [3]?
A: The value was “not toxic”.

Q: And the endoplasmic reticulum stress [4, 13]?
A: Its endoplasmic reticulum stress is “decreased”.

Q: What about the inflammation [4, 13] of the same substance?
A: The inflammation was “decreased”.

Q: And the oxidative stress [4, 13]?
A: The oxidative stress was “decreased”.

Q: And the endoplasmic reticulum stress ([4]; listed as low levan)?
A: Its endoplasmic reticulum stress is “significantly reduced”.

Q: And the inflammation ([4]; listed as low levan)?
A: Its inflammation is “significantly reduced”.

Q: What about the oxidative stress ([4]; listed as low levan) of the same substance?
A: Its oxidative stress is “significantly reduced”.

Q: And the vascular relaxation (aorta; hypertensive mice, aorta)?
A: The vascular relaxation was “improving”.

Q: What about the exacerbated vascular contraction (aorta; hypertensive mice, aorta contraction to PE, TXA, Ang II) of the same substance?
A: The exacerbated vascular contraction was “reducing”.

Q: What about the “vascular function in the aorta” value (aorta; mice with hypertension (angiotensin II)) of the same substance?
A: The value was “improved”.

Q: And the “endothelial function of resistance arteries (mesenteric artery)” value [5, 15]?
A: The value was “preserve”.

Q: And the “vascular function in mesenteric arteries” value [5, 15]?
A: Its value is “improved”.

Q: And the “vascular response to acetylcholine (Ach), MRA” value [5, 16]?
A: Its value is “improved”.

Q: And the endoplasmic reticulum stress [6]?
A: Its endoplasmic reticulum stress is “significantly reduced”.

Q: What about the inflammation [6] of the same substance?
A: Its inflammation is “significantly reduced”.

Q: What about the oxidative stress [6] of the same substance?
A: The oxidative stress was “significantly reduced”.

Q: And the endoplasmic reticulum stress [6, 13]?
A: The endoplasmic reticulum stress was “decreased”.

Q: And the inflammation [6, 13]?
A: Its inflammation is “decreased”.

Q: And the oxidative stress [6, 13]?
A: The oxidative stress was “decreased”.

Q: And the “endothelial function of conductance artery (thoracic aortic)” value (thoracic aorta; [15])?
A: Its value is “preserve”.

Q: What about the “vascular function in aorta” value (thoracic aorta; [15]) of the same substance?
A: The value was “improved”.

Q: What about the “vascular response to acetylcholine (Ach), aorta” value (thoracic aorta; [16]) of the same substance?
A: Its value is “improved”.

Q: And the endoplasmic reticulum stress [7]?
A: The endoplasmic reticulum stress was “significantly reduced”.

Q: And the inflammation [7]?
A: The inflammation was “significantly reduced”.

Q: What about the oxidative stress [7] of the same substance?
A: The oxidative stress was “significantly reduced”.

Q: What about the ER stress [8] of the same substance?
A: Its ER stress is “reduced”.

Q: And the inflammation [8]?
A: The inflammation was “reduced”.

Q: What about the oxidative stress [8] of the same substance?
A: The oxidative stress was “reduced”.

Q: And the ER stress [9, 13]?
A: Its ER stress is “decreased”.

Q: What about the inflammation [9, 13] of the same substance?
A: Its inflammation is “decreased”.

Q: What about the oxidative stress [9, 13] of the same substance?
A: The oxidative stress was “decreased”.

Q: What about the ER stress [9, 14] of the same substance?
A: Its ER stress is “reduced”.

Q: And the inflammation [9, 14]?
A: The inflammation was “reduced”.

Q: What about the oxidative stress [9, 14] of the same substance?
A: The oxidative stress was “reduced”.

Q: What about the “liver function (ALT, ALP)” value [10] of the same substance?
A: Its value is “improved”.

Q: And the “toxicity of the dose used” value [10]?
A: The value was “not toxic”.

Q: And the lipid profile ([11]; HFD mice with obesity, levan 250 mg/Kg gavage 4 weeks)?
A: Its lipid profile is “improved”.

Q: What about the fat mass % ([11]; HFD mice, levan 250 mg/Kg gavage 4 weeks, EchoMRI, vs untreated HFD mice) of the same substance?
A: Its fat mass % is “significantly decreased”.

Q: What about the lean mass % ([11]; HFD mice, levan 250 mg/Kg gavage 4 weeks, EchoMRI, vs untreated HFD mice, listed as low MW levan β-[2,6]-glycosidic linkages) of the same substance?
A: The lean mass % was “increased”.

Q: What about the lean mass % ([11]; HFD mice, levan 250 mg/Kg gavage 4 weeks, EchoMRI, vs untreated HFD mice, listed as low molecular weight levan having β-[2,6]-glycosidic linkages) of the same substance?
A: Its lean mass % is “significantly increased”.

Q: And the HDL [11, 17]?
A: The HDL was “significantly decreased”.

Q: And the LDL [11, 17]?
A: Its LDL is “significantly decreased”.

Q: What about the blood glucose [11, 17] of the same substance?
A: Its blood glucose is “significantly decreased”.

Q: And the total cholesterol [11, 17]?
A: Its total cholesterol is “significantly decreased”.

Q: What about the triglyceride [11, 17] of the same substance?
A: Its triglyceride is “significantly decreased”.

Q: What about the body weight ([11]; vs untreated HFD mice, listed as Low MW levan β-[2,6]-glycosidic linkages) of the same substance?
A: The body weight was “reduced”.

Q: What about the body weight ([11]; vs untreated HFD mice, listed as low molecular weight levan having β-[2,6]-glycosidic linkages) of the same substance?
A: The body weight was “decreased”.

Q: What about the blood pressure [12] of the same substance?
A: The blood pressure was “reduced”.
